# How the values were obtained:
# Type in all cases: functional
# [1] = tested on: UACC-62; experiment: Growth inhibition of human UACC62 cells assessed as cell growth at 10^-5 M incubated for 48 hrs by sulforhodamine B assay relative to control; settings: UACC-62, 48 h, read-out: Activity
# [2] = tested on: ACHN; experiment: Growth inhibition of human ACHN cells assessed as cell growth at 10^-5 M incubated for 48 hrs by sulforhodamine B assay relative to control; settings: read-out: Activity
# [3] = tested on: UO-31; experiment: Growth inhibition of human UO31 cells assessed as cell growth at 10^-5 M incubated for 48 hrs by sulforhodamine B assay relative to control; settings: UO-31, 48 h, read-out: Activity
# [4] = tested on: SK-OV-3; experiment: Growth inhibition of human SKOV3 cells assessed as cell growth at 10^-5 M incubated for 48 hrs by sulforhodamine B assay relative to control; settings: SK-OV-3, 48 h, read-out: Activity
# [5] = tested on: TK-10; experiment: Growth inhibition of human TK10 cells assessed as cell growth at 10^-5 M incubated for 48 hrs by sulforhodamine B assay relative to control; settings: TK-10, 48 h, read-out: Activity
# [6] = tested on: KM12; experiment: Growth inhibition of human KM12 cells assessed as cell growth at 10^-5 M incubated for 48 hrs by sulforhodamine B assay relative to control; settings: KM12, 48 h, read-out: Activity
# [7] = tested on: A549; experiment: Growth inhibition of human A549/ATCC cells assessed as cell growth at 10^-5 M incubated for 48 hrs by sulforhodamine B assay relative to control; settings: A549, 48 h, read-out: Activity
# [8] = tested on: HOP-62; experiment: Growth inhibition of human HOP62 cells assessed as cell growth at 10^-5 M incubated for 48 hrs by sulforhodamine B assay relative to control; settings: HOP-62, 48 h, read-out: Activity
# [9] = tested on: M14; experiment: Growth inhibition of human M14 cells assessed as cell growth at 10^-5 M incubated for 48 hrs by sulforhodamine B assay relative to control; settings: M14, 48 h, read-out: Activity
# [10] = tested on: BT-549; experiment: Growth inhibition of human BT549 cells assessed as cell growth at 10^-5 M incubated for 48 hrs by sulforhodamine B assay relative to control; settings: BT-549, 48 h, read-out: Activity
# [11] = tested on: CAKI-1; experiment: Growth inhibition of human Caki1 cells assessed as cell growth at 10^-5 M incubated for 48 hrs by sulforhodamine B assay relative to control; settings: CAKI-1, 48 h, read-out: Activity
# [12] = tested on: IGROV-1; experiment: Growth inhibition of human IGROV1 cells assessed as cell growth at 10^-5 M incubated for 48 hrs by sulforhodamine B assay relative to control; settings: IGROV-1, 48 h, read-out: Activity
# [13] = tested on: OVCAR-8; experiment: Growth inhibition of human OVCAR8 cells assessed as cell growth at 10^-5 M incubated for 48 hrs by sulforhodamine B assay relative to control; settings: OVCAR-8, 48 h, read-out: Activity
# [14] = tested on: HOP-92; experiment: Growth inhibition of human HOP92 cells assessed as cell growth at 10^-5 M incubated for 48 hrs by sulforhodamine B assay relative to control; settings: HOP-92, 48 h, read-out: Activity
# [15] = tested on: HL-60(TB); experiment: Growth inhibition of human HL-60(TB) cells assessed as cell growth at 10^-5 M incubated for 48 hrs by sulforhodamine B assay relative to control; settings: HL-60, 48 h, read-out: Activity
# [16] = tested on: SNB-75; experiment: Growth inhibition of human SNB75 cells assessed as cell growth at 10^-5 M incubated for 48 hrs by sulforhodamine B assay relative to control; settings: SNB-75, 48 h, read-out: Activity
# [17] = tested on: SNB-19; experiment: Growth inhibition of human SNB19 cells assessed as cell growth at 10^-5 M incubated for 48 hrs by sulforhodamine B assay relative to control; settings: SNB-19, 48 h, read-out: Activity
# [18] = tested on: SR; experiment: Growth inhibition of human SR cells assessed as cell growth at 10^-5 M incubated for 48 hrs by sulforhodamine B assay relative to control; settings: read-out: Activity
# [19] = tested on: MOLT-4; experiment: Growth inhibition of human MOLT4 cells assessed as cell growth at 10^-5 M incubated for 48 hrs by sulforhodamine B assay relative to control; settings: MOLT-4, 48 h, read-out: Activity
# [20] = tested on: RXF 393; experiment: Growth inhibition of human RXF393 cells assessed as cell growth at 10^-5 M incubated for 48 hrs by sulforhodamine B assay relative to control; settings: RXF 393, 48 h, read-out: Activity
# [21] = tested on: SF-539; experiment: Growth inhibition of human SF539 cells assessed as cell growth at 10^-5 M incubated for 48 hrs by sulforhodamine B assay relative to control; settings: SF-539, 48 h, read-out: Activity
# [22] = tested on: SK-MEL-5; experiment: Growth inhibition of human SK-MEL-5 cells assessed as cell growth at 10^-5 M incubated for 48 hrs by sulforhodamine B assay relative to control; settings: SK-MEL-5, 48 h, read-out: Activity
# [23] = tested on: UACC-257; experiment: Growth inhibition of human UACC257 cells assessed as cell growth at 10^-5 M incubated for 48 hrs by sulforhodamine B assay relative to control; settings: UACC-257, 48 h, read-out: Activity
# [24] = tested on: SN12C; experiment: Growth inhibition of human SN12C cells assessed as cell growth at 10^-5 M incubated for 48 hrs by sulforhodamine B assay relative to control; settings: read-out: Activity
# [25] = tested on: Malme-3M; experiment: Growth inhibition of human MALME-3M cells assessed as cell growth at 10^-5 M incubated for 48 hrs by sulforhodamine B assay relative to control; settings: read-out: Activity
# [26] = tested on: COLO 205; experiment: Growth inhibition of human COLO205 cells assessed as cell growth at 10^-5 M incubated for 48 hrs by sulforhodamine B assay relative to control; settings: COLO 205, 48 h, read-out: Activity
# [27] = tested on: U-251; experiment: Growth inhibition of human U251 cells assessed as cell growth at 10^-5 M incubated for 48 hrs by sulforhodamine B assay relative to control; settings: U-251, 48 h, read-out: Activity
# [28] = tested on: HT-29; experiment: Growth inhibition of human HT-29 cells assessed as cell growth at 10^-5 M incubated for 48 hrs by sulforhodamine B assay relative to control; settings: HT-29, 48 h, read-out: Activity
SMILES,growth at 10 µM [1] [%],growth at 10 µM [2] [%],growth at 10 µM [3] [%],growth at 10 µM [4] [%],growth at 10 µM [5] [%],growth at 10 µM [6] [%],growth at 10 µM [7] [%],growth at 10 µM [8] [%],growth at 10 µM [9] [%],growth at 10 µM [10] [%],growth at 10 µM [11] [%],growth at 10 µM [12] [%],growth at 10 µM [13] [%],growth at 10 µM [14] [%],growth at 10 µM [15] [%],growth at 10 µM [16] [%],growth at 10 µM [17] [%],growth at 10 µM [18] [%],growth at 10 µM [19] [%],growth at 10 µM [20] [%],also measured
O=C1Nc2ccccc2/C1=C/c1cccn1CCCCn1c2ccccc2c(=O)c2ccccc21,51.8,76.3,49.6,94.6,104,13,86.3,77.4,85.1,74.5,69.5,77.3,58.8,59.5,60.2,78,98.4,80.1,47.7,88.1,growth at 10 µM [21]: 93%; growth at 10 µM [22]: 38.6%; growth at 10 µM [23]: 105%; growth at 10 µM [24]: 97.9%; growth at 10 µM [25]: 91.9%; growth at 10 µM [26]: 69.8%; growth at 10 µM [27]: 95.1%; growth at 10 µM [28]: 89.1%
O=C1Nc2ccccc2/C1=C/c1cccn1CCCCCn1c2ccccc2c(=O)c2ccccc21,48.2,55.1,49.3,90.4,93.8,12.1,81.4,58.3,73.3,65.5,65.9,73,45.6,65.5,47.6,86.7,95.3,76.1,46,89.2,growth at 10 µM [21]: 94.2%; growth at 10 µM [22]: 32.2%; growth at 10 µM [23]: 106%; growth at 10 µM [24]: 97.1%; growth at 10 µM [25]: 84.5%; growth at 10 µM [26]: 56.2%; growth at 10 µM [27]: 93.4%; growth at 10 µM [28]: 89.5%
O=C1NC(=O)C(=Cc2cccn2CCCCCCn2c3ccccc3c(=O)c3ccccc32)C(=O)N1,82.1,103,70.3,99.8,126,97.1,95.6,93.1,94.4,93.9,92.8,91.5,93,85,91.3,107,94.2,72.2,79.6,106,growth at 10 µM [21]: 107%; growth at 10 µM [22]: 85.7%; growth at 10 µM [23]: 103%; growth at 10 µM [24]: 100%; growth at 10 µM [25]: 112%; growth at 10 µM [26]: 105%; growth at 10 µM [27]: 90.5%; growth at 10 µM [28]: 105%
O=C1/C(=C\c2cccn2CCCCn2c3ccccc3c(=O)c3ccccc32)c2ccccc2N1c1c(Cl)cccc1Cl,82.1,99.5,80.8,105,108,90.8,93,104,96,105,87.4,110,98.3,71,106,91.9,98.2,87.7,93.8,97.5,growth at 10 µM [21]: 98.9%; growth at 10 µM [22]: 98.7%; growth at 10 µM [23]: 101%; growth at 10 µM [24]: 101%; growth at 10 µM [25]: 106%; growth at 10 µM [26]: 70%; growth at 10 µM [27]: 96%; growth at 10 µM [28]: 110%
O=C1/C(=C\c2cccn2CCCCCn2c3ccccc3c(=O)c3ccccc32)c2ccccc2N1c1c(Cl)cccc1Cl,82.6,100,75.5,95.6,99.8,69.4,85.9,102,97.2,97.1,74.4,98.7,97.7,65.6,96.8,87.3,98.5,92.3,87.6,100,growth at 10 µM [21]: 97%; growth at 10 µM [22]: 96.2%; growth at 10 µM [23]: 100%; growth at 10 µM [24]: 100%; growth at 10 µM [25]: 108%; growth at 10 µM [26]: 72.2%; growth at 10 µM [27]: 93%; growth at 10 µM [28]: 96.2%
O=C1NC(=O)C(=Cc2cccn2CCCCn2c3ccccc3c(=O)c3ccccc32)C(=O)N1,66.1,92.8,63.4,100,92.4,74.3,94.6,79.1,82.5,88.1,82.9,72.1,86.4,86.1,60.1,92.6,75.4,51.6,70.4,81.4,growth at 10 µM [21]: 85.4%; growth at 10 µM [22]: 73.8%; growth at 10 µM [23]: 91.4%; growth at 10 µM [24]: 86.6%; growth at 10 µM [25]: 95.6%; growth at 10 µM [26]: 100%; growth at 10 µM [27]: 76%; growth at 10 µM [28]: 90.2%
O=C1Nc2ccccc2/C1=C/c1cccn1CCCCCCn1c2ccccc2c(=O)c2ccccc21,50.3,89.7,56.2,87.2,78.7,12.8,87.8,63.2,78.2,63.5,72.6,88,47.5,56.4,54.5,92.3,97.1,80.8,50.9,99.2,growth at 10 µM [21]: 100%; growth at 10 µM [22]: 34.7%; growth at 10 µM [23]: 110%; growth at 10 µM [24]: 93.6%; growth at 10 µM [25]: 90.7%; growth at 10 µM [26]: 50.5%; growth at 10 µM [27]: 92.4%; growth at 10 µM [28]: 92.9%
